Experimental data reported in patent US20010051630A1, “Use of hydroxylamine derivatives, and method and preparations for increasing the tolerance of field crops against weather stresses” (priority 1997, published 2001).
Marks after values point to notes of the source that are not given here.

Columns and labels:
[1] = test system: Mo 17 inbred maize line; test: CSVT (Complex Stressing Vigour Test), seeds soaked in active agent, Mo 17 maize; format: in vivo; settings: seeds soaked in 10 mg/l active agent, * = significant vs control P < 0.05
Protocol: (§1) In this experiment the tolerance of maize, soybean and pepper seeds treated with the active agent against cold was tested. This test imposed temperature and oxygen deficiency stresses on the seeds and was carried out according to Barla-Szabó and Dolinka CSVT (Complex Stressing Vigour Test). For a single test, two hundred seeds were soaked for 48 hours at 25° C. and another 48 hours at 5° C in 150 ml distilled water containing the active agent in 10 mg/l concentration. Following the 96 hours of soaking, the seeds were further germinated between rolled wet paper for 96 hours at 25° C. There were 25 seeds in each roll, the rolls were placed vertically into containers and covered with a plastic bag in order to reduce evaporation. During the whole procedure the seeds were kept in darkness. At the end of the experiment the number of normally developing and ungerminated seeds were recorded. The length of the normal seedlings was measured and the average length of the five longest seedlings was calculated. Seedlings longer than 0.33 times the average length of the five longest seedlings were considered to be of high vigour, and low vigour seedlings were shorter than this length.

[2] = test system: HMv09 inbred maize line; test: CSVT, seeds soaked in active agent, HMv09 maize; format: in vivo; settings: seeds soaked in 10 mg/l active agent
Protocol: as §1

[3] = test system: McCall soybeans; test: CSVT with PVA-pearled McCall soybeans, relative length; format: in vivo, soybean; settings: 2.5 mg in 1 ml 2.5% PVA per 100 seeds
Protocol: as §1, with “darkness.” for “darkness. At the end of the experiment the number of normally developing and ungerminated seeds were recorded. The length of the normal seedlings was measured and the average length of the five longest seedlings was calculated. Seedlings longer than 0.33 times the average length of the five longest seedlings were considered to be of high vigour, and low vigour seedlings were shorter than this length.”
In a further CSVT experiment also using McCall soybeans, polyvinylalcohol (PVA) was applied for pearling the seeds. The 2.5 mg doses of the active agents were dissolved in 1 ml of 2.5% PVA solution, and this quantity was applied to 100 pieces of seeds. The improvement of the chilling tolerance is observed by the significant elongation of the germ and the roots.

[4] = test system: Seaway bean cultivar; test: Drought tolerance of beans, part a (5 days hardening); format: in vivo; settings: 7 days without water, one week regeneration
Text: Based on the experiences of our preliminary experiments, the plants were hardened before the application of the active agent by withholding the water for a few days, until the first signs of withering appeared. Then the plants were watered and the active agent was either dissolved in the water, or sprayed to the plants directly. Afterwards, the plants were subjected to different periods of drought according to the given experiment, watered again, and after a week-long regeneration period, the survival ratio was determined.
a) Seaway bean cultivar was hardened for 5 days by withholding the water. Afterwards the plantlets were watered for two days normally. During this time, a 10 mg/liter and 100 mg/liter concentration solution of the active agent was applied two times a day dissolved in water or by direct spraying. Then the water was withheld for 7 days, and after a week-long regeneration period, the survival ratio was determined.

[5] = test system: Mo 17 maize inbred line; test: Chilling tolerance of maize in a gradient chamber; format: in vivo
Protocol: The experiment was performed using the Mo 17 maize inbred line. The seeds were coated with a 2% solution of the examined compound dissolved in 2 ml polyvinylalcohol before germination, where the above quantity of solution is applied for 100 seeds. The seeds were germinated for 3 days wrapped in wet filter paper, they were sown and then cultivated in gradient chamber for 6 weeks. In the gradient chamber, the temperature was maintained on a scale between 18 and 12° C., with differences of 1° C. This was followed by a one week regeneration at 23/20° C. temperature.
In the experiment, the length of the plants was measured 16, 31 and 43 days after the sowing, and at the end of the experiment the fresh weight of the plants was measured. The experiment was performed on 4 plants at each temperature and by each treatment.

[6] = test system: soybean cv. Bólyi 44; test: Field soybean cultivation, yield; format: in vivo; settings: for Weight of the crop (kg/m^2): seeds pearled with 1 mg active agent in 1 ml 5% PVA per 100 seeds; for Improvement compared to the control (%): weight of the crop
Protocol: The experiment was performed using soybean cv. Bólyi 44. Before sowing, the seeds were treated with Rhyzobium Japonicum nitrogen-binding bacterium, which forms a root nodule providing 50-70% of the nitrogen demand of the plant.
The examined compounds were applied by pearling the seeds; 1 ml of pearling agent containing 1 mg of active agent in a 5% aqueous PVA solution was used for 100 seeds.
The plants were sown after soil preparation in the autumn, using a crop rotation system, 3-5 cm deep in the ground, with a 45-50 cm row distance, a 5 cm plant distance and 450,000-500,000 plant/ha density. The date of sowing was Apr. 15, 1997. During the development of the plant, the usual cultivation procedures were followed and the usual pesticides were used. The harvest took place in September-October, with the water content of the grains being between 16-18%.

[7] = test system: maize of high chilling tolerance (HT) population; test: CSVT, maize population of high chilling tolerance (HT); format: in vivo
Protocol: as §1, with “darkness.” for “darkness. At the end of the experiment the number of normally developing and ungerminated seeds were recorded. The length of the normal seedlings was measured and the average length of the five longest seedlings was calculated. Seedlings longer than 0.33 times the average length of the five longest seedlings were considered to be of high vigour, and low vigour seedlings were shorter than this length.”
(§2) At the end of the experiment the number of normally developing and ungerminated seeds were recorded. The length of the normal seedlings was measured and the average length of the five longest seedlings was calculated. Seedlings longer than 0.33 times the average length of the five longest seedlings were considered to be of high vigour, and low vigour seedlings were shorter than this length.
(§3) In the case of a further experiment with maize of low chilling tolerance (LT) and high chilling tolerance (HT) populations [Ref: P. Landi, E. Frascaroli, A. Lovato; EUPHYTICA 64 21-29 (1992)], the following positive effects were found (Table 3.).

[8] = test system: maize of low chilling tolerance (LT) population; test: CSVT, maize population of low chilling tolerance (LT); format: in vivo
Protocol: as §1, with “darkness.” for “darkness. At the end of the experiment the number of normally developing and ungerminated seeds were recorded. The length of the normal seedlings was measured and the average length of the five longest seedlings was calculated. Seedlings longer than 0.33 times the average length of the five longest seedlings were considered to be of high vigour, and low vigour seedlings were shorter than this length.”
as §2, §3

## CNC(=NOCCCN1CCCCC1)N(C)c1ccccc1.Cl [Compound 6, N-N′-dimethyl-N′-phenyl-N″-[3-(1-piperidinyl)propoxy]-guanidine hydrochloride]
[1]
  Ratio of high vigour plants (%): 36* %

## N-[2-hydroxy-3-(1-piperidinyl)propoxy]-ethylurethane [Compound 7]
[1]
  Ratio of high vigour plants (%): 24%

## CC(C)(C)NCC(O)CONC(=Nc1ccccc1)c1ccccc1.Cl (stereo not shown) [Compound 5, N-[[3-(1,1-dimethylethyl)-amino]-2-hydroxypropoxy]-N′-phenyl-benzamidine hydrochloride]
[1]
  Ratio of high vigour plants (%): 35* %
[2]
  Ratio of high vigour plants (%): 57* %
[3]
  Relative length (control = 100), germ: 127
  Relative length (control = 100), root: 152
[4]
  survival (%), Watering (10 mg/l): 25* %
  survival (%), Watering (100 mg/l): 36* %
[5]; 12° C., 16 days
  Length (cm): 4.5 cm
[5]; 12° C., 31 days
  Length (cm): 10.9 cm
[5]; 12° C., 43 days
  FW (g), fresh weight: 2.0 g
  Length (cm): 25.5 cm
[5]; 13° C., 16 days
  Length (cm): 4.7 cm
[5]; 13° C., 31 days
  Length (cm): 10.0 cm
[5]; 13° C., 43 days
  FW (g), fresh weight: 1.1 g
  Length (cm): 18.5 cm
[5]; 14° C., 16 days
  Length (cm): 5.8 cm
[5]; 14° C., 31 days
  Length (cm): 11.6 cm
[5]; 14° C., 43 days
  FW (g), fresh weight: 1.3 g
  Length (cm): 20.3 cm
[5]; 15° C., 16 days
  Length (cm): 9.5 cm
[5]; 15° C., 31 days
  Length (cm): 22.2 cm
[5]; 15° C., 43 days
  FW (g), fresh weight: 5.4 g
  Length (cm): 34.0 cm
[5]; 16° C., 16 days
  Length (cm): 12.4 cm
[5]; 16° C., 31 days
  Length (cm): 26.4 cm
[5]; 16° C., 43 days
  FW (g), fresh weight: 7.7 g
  Length (cm): 42.3 cm
[5]; 17° C., 16 days
  Length (cm): 17.8 cm
[5]; 17° C., 31 days
  Length (cm): 29.9 cm
[5]; 17° C., 43 days
  FW (g), fresh weight: 9.7 g
  Length (cm): 44.3 cm
[5]; 18° C., 16 days
  Length (cm): 14.6 cm
[5]; 18° C., 31 days
  Length (cm): 25.0 cm
[5]; 18° C., 43 days
  FW (g), fresh weight: 7.6 g
  Length (cm): 39.0 cm
[6]
  Weight of the crop (kg/m^2): 0.52 kg/m^2
  Improvement compared to the control (%): 15.5%

## CCCCCCN(OCC(O)CN1CCCCC1)C(N)=O (stereo not shown) [Compound 8, N-hexyl-N-[2-hydroxy-3-(1-piperidinyl)propoxyl]-urea]
[1]
  Ratio of high vigour plants (%): 23* %

## Cl.c1ccc(N=C(NOCCCN2CCCCC2)c2ccccc2)cc1 [Compound 11, N-[3-(1-piperidinyl)propoxy]-N′-phenyl-benzamidine hydrochloride]
[2]
  Ratio of high vigour plants (%): 53* %

## CN(C)C(=NOCC(O)CN1CCCCC1)Nc1ccccc1.Cl (stereo not shown) [Compound 9, N,N-dimethyl-N′-phenyl-N″-[2-hydroxy-3-(1-piperidinyl)propoxy]-guanidine hydrochloride]
[2]
  Ratio of high vigour plants (%): 56* %

## Cl.O=[N+]([O-])c1ccccc1C(Cl)=NOCC(O)CN1CCCCC1 (stereo not shown) [Compound 4, N-[2-hydroxy-3-(1-piperidinyl)propoxy]-2′-nitro-benzenecarboximidoyl Chloride Monohydrochloride]
[1]
  Ratio of high vigour plants (%): 32* %
[7]
  Ratio of high vigour plants %, HT: 96* %
[8]
  Ratio of high vigour plants %, LT: 92* %
[3]
  Relative length (control = 100), germ: 116
  Relative length (control = 100), root: 135
[5]; 12° C., 16 days
  Length (cm): 5.8 cm
[5]; 12° C., 31 days
  Length (cm): 11.3 cm
[5]; 12° C., 43 days
  FW (g), fresh weight: 1.5 g
  Length (cm): 20.1 cm
[5]; 13° C., 16 days
  Length (cm): 7.4 cm
[5]; 13° C., 31 days
  Length (cm): 13.1 cm
[5]; 13° C., 43 days
  FW (g), fresh weight: 2.1 g
  Length (cm): 23.8 cm
[5]; 14° C., 16 days
  Length (cm): 9.7 cm
[5]; 14° C., 31 days
  Length (cm): 17.2 cm
[5]; 14° C., 43 days
  FW (g), fresh weight: 2.9 g
  Length (cm): 25.1 cm
[5]; 15° C., 16 days
  Length (cm): 10.2 cm
[5]; 15° C., 31 days
  Length (cm): 21.3 cm
[5]; 15° C., 43 days
  FW (g), fresh weight: 4.4 g
  Length (cm): 32.3 cm
[5]; 16° C., 16 days
  Length (cm): 15.4 cm
[5]; 16° C., 31 days
  Length (cm): 26.8 cm
[5]; 16° C., 43 days
  FW (g), fresh weight: 5.0 g
  Length (cm): 34.5 cm
[5]; 17° C., 16 days
  Length (cm): 19.7 cm
[5]; 17° C., 31 days
  Length (cm): 31.2 cm
[5]; 17° C., 43 days
  FW (g), fresh weight: 6.6 g
  Length (cm): 37.3 cm
[5]; 18° C., 16 days
  Length (cm): 15.0 cm
[5]; 18° C., 31 days
  Length (cm): 28.4 cm
[5]; 18° C., 43 days
  FW (g), fresh weight: 6.2 g
  Length (cm): 38.0 cm
[6]
  Weight of the crop (kg/m^2): 0.50 kg/m^2
  Improvement compared to the control (%): 11.1%

## Cl.ClC(=NOCCCN1CCCCC1)c1cccs1 [Compound 10, N-[3-(1-piperidinyl)propoxy]-thiophene-2-carboximidoylchloride hydrochloride]
[2]
  Ratio of high vigour plants (%): 45* %

## CCCCCCCCCCCCCCCC(=O)OC(CONC(=N)c1cccnc1)CN1CCCCC1.Cl (stereo not shown) [Compound 2, N-[2-palmitoyloxy-3-(1-piperidinyl)propoxy]-3-pyridinecarboximidamide Monohydrochloride]
[1]
  Ratio of high vigour plants (%): 47* %
[7]
  Ratio of high vigour plants %, HT: 92* %
[8]
  Ratio of high vigour plants %, LT: 86* %
[3]
  Relative length (control = 100), germ: 133
  Relative length (control = 100), root: 150
